PMC12136037, “Type II kinase inhibitors that target Parkinson’s disease–associated LRRK2” (Science Advances, 2025)
Like-named read-outs stand apart in the source and are kept apart here.

How the values were obtained:
Assay in all cases: DSF 100 kinase selectivity screen;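 further: compound tested at 20 µM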
Format in all cases: binding
[1] = molecular target: T1, ~100 representative kinases (Homo sapiens, UniProt Q9UEE5); conditions: Protein STK17A; DSF; average of three replicates
T1 construct: Recombinant protein kinase domains with a concentration of 2 μM
T1 sequence (Q9UEE5 1-414): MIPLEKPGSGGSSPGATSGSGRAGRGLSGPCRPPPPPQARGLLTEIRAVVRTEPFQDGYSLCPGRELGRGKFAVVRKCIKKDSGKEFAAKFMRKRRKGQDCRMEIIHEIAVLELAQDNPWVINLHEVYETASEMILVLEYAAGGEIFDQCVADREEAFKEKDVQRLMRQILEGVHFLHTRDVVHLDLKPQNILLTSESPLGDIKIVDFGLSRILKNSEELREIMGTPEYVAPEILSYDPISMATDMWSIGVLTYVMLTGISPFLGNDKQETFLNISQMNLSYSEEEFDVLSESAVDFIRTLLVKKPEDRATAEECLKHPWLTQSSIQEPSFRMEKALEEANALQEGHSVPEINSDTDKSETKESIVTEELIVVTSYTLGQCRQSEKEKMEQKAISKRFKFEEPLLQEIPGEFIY
In short: (§1)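 Each kinase domain, at 2 μM, is mixed with 20 μM test compound and SYPRO Orange in Hepes (20 mM, pH 7.5) with 500 mM NaCl. Temperature is then raised at 3°C/min and fluorescence-monitored unfolding yields the melting temperature change, ΔTm in degrees Celsius.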

[2] = molecular target: T2, ~100 representative kinases (Homo sapiens, UniProt P53355); conditions: Protein DAPK1; average of three replicates
T2 construct: Recombinant protein kinase domains with a concentration of 2 μM
In short: as §1

[3] = molecular target: T3, ~100 representative kinases (Homo sapiens, UniProt P15056)
T3 construct: Recombinant protein kinase domains with a concentration of 2 μM
In short: as §1

[4] = molecular target: T4, ~100 representative kinases (Homo sapiens, UniProt P54753); conditions: Protein EPHB3A; average of three replicates
T4 construct: Recombinant protein kinase domains with a concentration of 2 μM
T4 sequence (P54753 34-998): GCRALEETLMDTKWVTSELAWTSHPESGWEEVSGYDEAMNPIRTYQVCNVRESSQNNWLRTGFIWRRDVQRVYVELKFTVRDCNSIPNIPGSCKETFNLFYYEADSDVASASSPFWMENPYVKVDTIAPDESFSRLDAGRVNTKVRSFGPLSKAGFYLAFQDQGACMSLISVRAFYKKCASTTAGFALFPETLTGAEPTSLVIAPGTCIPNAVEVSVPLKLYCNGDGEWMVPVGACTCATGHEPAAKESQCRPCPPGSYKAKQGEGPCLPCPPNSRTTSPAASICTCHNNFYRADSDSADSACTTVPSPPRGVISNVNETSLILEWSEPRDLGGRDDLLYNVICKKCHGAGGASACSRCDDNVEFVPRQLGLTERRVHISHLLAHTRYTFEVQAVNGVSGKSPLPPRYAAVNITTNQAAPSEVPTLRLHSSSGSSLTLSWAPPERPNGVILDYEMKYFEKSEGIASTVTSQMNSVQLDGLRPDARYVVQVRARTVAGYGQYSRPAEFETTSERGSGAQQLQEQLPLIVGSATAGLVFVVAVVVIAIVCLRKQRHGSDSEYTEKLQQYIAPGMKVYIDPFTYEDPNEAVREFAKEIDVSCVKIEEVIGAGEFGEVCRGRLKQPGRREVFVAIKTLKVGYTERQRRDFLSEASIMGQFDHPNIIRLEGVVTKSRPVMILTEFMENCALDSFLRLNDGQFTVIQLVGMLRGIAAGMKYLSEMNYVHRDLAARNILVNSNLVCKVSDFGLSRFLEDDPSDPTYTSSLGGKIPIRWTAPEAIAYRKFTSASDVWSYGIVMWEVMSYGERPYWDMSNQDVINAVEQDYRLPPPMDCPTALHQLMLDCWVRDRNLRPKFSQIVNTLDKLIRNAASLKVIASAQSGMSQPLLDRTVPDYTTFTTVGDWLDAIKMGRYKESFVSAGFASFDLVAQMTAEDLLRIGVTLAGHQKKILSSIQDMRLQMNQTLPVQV
In short: as §1

[5] = molecular target: T5, ~100 representative kinases (Homo sapiens, UniProt Q15418); conditions: Protein RPS6KA1; DSF; average of three replicates
T5 construct: Recombinant protein kinase domains with a concentration of 2 μM
In short: as §1

[6] = molecular target: T6, ~100 representative kinases (Homo sapiens, UniProt P11309); conditions: protein PIM1; average of three replicates
T6 construct: Recombinant protein kinase domains with a concentration of 2 μM
In short: as §1

[7] = molecular target: T7, ~100 representative kinases (Homo sapiens, UniProt Q00532); conditions: Protein CDKL1; average of three replicates
T7 construct: Recombinant protein kinase domains with a concentration of 2 μM
In short: as §1

[8] = molecular target: T8, ~100 representative kinases (Homo sapiens, UniProt P52564); conditions: protein MAP2K6; average of three replicates
T8 construct: Recombinant protein kinase domains with a concentration of 2 μM
T8 sequence (P52564 1-334): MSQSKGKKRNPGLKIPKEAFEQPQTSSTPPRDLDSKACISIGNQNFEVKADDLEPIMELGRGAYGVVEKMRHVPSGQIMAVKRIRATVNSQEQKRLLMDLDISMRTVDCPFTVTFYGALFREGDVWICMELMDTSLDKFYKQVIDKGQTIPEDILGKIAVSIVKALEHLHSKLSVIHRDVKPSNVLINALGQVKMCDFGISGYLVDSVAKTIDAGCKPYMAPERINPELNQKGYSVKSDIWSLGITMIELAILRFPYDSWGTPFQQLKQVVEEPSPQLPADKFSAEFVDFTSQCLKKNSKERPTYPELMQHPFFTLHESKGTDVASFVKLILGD
In short: as §1

[9] = molecular target: T9, ~100 representative kinases (Homo sapiens, UniProt Q13554); conditions: Protein CAMK2B; average of three replicates
T9 construct: Recombinant protein kinase domains with a concentration of 2 μM
In short: as §1

[10] = molecular target: T10, ~100 representative kinases (Homo sapiens, UniProt P49674); conditions: Protein CSNK1E; average of three replicates
T10 construct: Recombinant protein kinase domains with a concentration of 2 μM
In short: as §1

[11] = Protein BRAF, average of three replicates

T2 sequence (P53355 whole entry, the tested form may be a part): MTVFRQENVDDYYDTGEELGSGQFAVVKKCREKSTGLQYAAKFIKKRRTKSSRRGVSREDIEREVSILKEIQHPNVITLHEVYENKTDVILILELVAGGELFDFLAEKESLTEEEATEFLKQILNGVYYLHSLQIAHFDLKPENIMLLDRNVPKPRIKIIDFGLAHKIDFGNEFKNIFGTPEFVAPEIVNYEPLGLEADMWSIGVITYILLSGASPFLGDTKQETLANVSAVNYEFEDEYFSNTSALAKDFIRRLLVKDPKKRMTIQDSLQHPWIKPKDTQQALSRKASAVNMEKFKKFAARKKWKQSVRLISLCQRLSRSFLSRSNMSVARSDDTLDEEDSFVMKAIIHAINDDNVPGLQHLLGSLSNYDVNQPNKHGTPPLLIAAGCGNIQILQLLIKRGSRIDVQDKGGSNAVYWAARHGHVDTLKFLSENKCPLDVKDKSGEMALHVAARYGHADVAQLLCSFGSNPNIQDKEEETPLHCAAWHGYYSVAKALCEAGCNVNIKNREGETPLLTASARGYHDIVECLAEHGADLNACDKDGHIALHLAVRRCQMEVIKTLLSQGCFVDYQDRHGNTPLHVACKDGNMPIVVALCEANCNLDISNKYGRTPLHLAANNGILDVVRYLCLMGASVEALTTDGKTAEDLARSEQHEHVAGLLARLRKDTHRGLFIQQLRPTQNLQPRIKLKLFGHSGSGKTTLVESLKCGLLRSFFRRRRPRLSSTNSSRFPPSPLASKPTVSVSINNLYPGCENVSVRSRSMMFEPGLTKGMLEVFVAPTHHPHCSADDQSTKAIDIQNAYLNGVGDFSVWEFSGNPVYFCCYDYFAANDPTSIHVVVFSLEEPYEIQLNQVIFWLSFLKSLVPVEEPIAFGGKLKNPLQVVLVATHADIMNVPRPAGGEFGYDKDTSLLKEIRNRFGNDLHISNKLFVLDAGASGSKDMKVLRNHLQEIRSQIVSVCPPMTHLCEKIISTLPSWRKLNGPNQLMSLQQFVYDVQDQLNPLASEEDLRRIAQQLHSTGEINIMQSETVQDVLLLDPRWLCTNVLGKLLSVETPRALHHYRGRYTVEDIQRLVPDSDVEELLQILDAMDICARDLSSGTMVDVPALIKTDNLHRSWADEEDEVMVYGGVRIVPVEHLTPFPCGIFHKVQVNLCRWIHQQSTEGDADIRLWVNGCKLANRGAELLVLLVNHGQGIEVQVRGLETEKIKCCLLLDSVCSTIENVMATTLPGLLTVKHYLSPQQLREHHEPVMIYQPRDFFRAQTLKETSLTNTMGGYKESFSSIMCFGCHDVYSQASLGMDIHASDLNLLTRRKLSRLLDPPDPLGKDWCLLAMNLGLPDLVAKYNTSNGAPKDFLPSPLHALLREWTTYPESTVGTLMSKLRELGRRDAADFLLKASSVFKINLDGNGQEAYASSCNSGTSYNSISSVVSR
T7 sequence (Q00532 whole entry, the tested form may be a part): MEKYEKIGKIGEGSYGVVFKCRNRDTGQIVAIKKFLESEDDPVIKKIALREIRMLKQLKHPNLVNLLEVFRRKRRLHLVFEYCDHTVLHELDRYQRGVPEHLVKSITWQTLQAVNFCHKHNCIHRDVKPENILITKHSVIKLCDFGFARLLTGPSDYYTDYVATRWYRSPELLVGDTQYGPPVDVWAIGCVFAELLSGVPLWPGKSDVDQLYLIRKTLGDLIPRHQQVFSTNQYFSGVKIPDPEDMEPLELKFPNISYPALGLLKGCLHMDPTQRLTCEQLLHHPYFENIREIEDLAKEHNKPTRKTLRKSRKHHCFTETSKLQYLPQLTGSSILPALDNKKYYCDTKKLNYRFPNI
T10 sequence (P49674 whole entry, the tested form may be a part): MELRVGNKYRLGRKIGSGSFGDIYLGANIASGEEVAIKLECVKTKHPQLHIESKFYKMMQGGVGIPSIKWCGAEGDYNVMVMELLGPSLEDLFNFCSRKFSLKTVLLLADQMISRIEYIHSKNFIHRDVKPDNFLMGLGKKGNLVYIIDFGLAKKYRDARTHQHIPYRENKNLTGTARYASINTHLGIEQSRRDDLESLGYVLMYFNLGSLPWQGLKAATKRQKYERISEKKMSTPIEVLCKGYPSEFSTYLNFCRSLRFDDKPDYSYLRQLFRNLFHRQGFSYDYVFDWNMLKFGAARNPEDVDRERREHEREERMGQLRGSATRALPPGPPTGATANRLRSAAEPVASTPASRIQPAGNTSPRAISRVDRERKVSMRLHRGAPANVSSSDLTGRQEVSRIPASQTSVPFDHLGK
T3 sequence (P15056 whole entry, the tested form may be a part): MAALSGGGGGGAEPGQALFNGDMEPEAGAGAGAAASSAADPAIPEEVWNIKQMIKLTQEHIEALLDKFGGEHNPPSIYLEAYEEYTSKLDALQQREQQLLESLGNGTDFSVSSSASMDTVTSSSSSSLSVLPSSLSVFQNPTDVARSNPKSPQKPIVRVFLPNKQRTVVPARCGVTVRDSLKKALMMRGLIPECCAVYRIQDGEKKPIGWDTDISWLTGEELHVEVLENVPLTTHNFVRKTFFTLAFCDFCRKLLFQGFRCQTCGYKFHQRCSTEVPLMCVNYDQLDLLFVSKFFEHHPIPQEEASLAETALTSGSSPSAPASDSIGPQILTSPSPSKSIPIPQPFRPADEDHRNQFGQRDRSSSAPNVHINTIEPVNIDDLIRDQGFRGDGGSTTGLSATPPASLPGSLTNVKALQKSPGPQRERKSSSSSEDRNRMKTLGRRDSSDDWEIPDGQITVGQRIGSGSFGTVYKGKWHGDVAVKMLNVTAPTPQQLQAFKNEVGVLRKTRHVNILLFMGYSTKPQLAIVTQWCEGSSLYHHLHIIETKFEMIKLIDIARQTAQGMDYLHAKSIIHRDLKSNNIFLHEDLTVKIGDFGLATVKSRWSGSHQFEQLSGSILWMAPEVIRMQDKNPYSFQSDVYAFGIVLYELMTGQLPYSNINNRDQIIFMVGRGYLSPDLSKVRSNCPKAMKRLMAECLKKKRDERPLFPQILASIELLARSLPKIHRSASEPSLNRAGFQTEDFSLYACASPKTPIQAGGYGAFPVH
T6 sequence (P11309 whole entry, the tested form may be a part): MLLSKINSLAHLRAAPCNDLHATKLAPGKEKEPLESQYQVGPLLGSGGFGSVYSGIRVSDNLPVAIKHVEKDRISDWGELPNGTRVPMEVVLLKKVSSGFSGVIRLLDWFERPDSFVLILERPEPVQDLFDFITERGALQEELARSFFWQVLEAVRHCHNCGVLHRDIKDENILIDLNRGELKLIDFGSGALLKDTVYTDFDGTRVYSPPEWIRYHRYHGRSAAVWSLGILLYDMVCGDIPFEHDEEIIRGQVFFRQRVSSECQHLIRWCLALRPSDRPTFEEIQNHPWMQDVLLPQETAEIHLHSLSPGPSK
T9 sequence (Q13554 whole entry, the tested form may be a part): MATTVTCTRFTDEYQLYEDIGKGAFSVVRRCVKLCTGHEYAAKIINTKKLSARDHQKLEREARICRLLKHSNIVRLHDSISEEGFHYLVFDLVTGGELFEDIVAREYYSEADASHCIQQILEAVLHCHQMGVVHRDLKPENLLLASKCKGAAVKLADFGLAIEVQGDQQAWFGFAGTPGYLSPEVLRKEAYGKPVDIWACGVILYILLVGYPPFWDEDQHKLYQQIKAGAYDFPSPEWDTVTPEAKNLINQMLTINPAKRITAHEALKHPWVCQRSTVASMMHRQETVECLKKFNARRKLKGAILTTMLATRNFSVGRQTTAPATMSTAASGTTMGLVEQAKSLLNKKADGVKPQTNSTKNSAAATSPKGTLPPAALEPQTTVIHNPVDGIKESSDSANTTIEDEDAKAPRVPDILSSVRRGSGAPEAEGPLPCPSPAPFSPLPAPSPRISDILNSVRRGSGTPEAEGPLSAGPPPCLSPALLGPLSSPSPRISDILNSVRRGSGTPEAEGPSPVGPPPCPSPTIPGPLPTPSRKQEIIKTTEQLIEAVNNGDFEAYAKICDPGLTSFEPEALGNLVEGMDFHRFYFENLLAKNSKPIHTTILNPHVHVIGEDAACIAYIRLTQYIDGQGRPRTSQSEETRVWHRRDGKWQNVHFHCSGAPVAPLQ
T5 sequence (Q15418 whole entry, the tested form may be a part): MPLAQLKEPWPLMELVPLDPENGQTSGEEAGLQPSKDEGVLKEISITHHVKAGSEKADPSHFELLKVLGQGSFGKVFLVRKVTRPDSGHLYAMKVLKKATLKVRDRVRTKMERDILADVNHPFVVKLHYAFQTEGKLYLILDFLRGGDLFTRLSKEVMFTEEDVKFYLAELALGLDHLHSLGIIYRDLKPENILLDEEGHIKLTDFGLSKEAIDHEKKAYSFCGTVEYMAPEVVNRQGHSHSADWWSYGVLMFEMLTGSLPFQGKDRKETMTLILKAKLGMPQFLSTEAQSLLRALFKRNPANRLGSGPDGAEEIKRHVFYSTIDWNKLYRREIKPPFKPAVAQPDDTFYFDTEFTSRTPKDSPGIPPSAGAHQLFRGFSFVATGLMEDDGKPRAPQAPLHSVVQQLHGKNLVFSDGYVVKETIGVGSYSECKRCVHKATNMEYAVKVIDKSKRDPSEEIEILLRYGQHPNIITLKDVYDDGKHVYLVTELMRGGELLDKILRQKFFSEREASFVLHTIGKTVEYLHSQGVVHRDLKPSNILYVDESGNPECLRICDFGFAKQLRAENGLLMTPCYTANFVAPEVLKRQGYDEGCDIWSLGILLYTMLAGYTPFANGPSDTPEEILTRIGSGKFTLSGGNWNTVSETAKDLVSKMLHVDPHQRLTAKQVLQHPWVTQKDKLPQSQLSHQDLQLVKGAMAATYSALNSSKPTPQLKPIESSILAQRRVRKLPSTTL

## Cc1ccc(C(=O)Nc2ccc(CN3CCN(C)CC3)c(C(F)(F)F)c2)cc1C#Cc1c[nH]c2ncnc(N3CCOCC3)c12 [Compound 1]
[1]
  dTm: 2.74 K
[2]
  dTm: 0.30 K
[3]; [11]
  dTm: 35.22 K
[4]
  dTm: 4.94 K
[5]
  dTm: 2.57 K
[6]
  dTm: 1.54 K
[7]
  dTm: 3.12 K
[8]
  dTm: 3.80 K
[9]
  dTm: 0.49 K

## O=C(Nc1ccc(F)cc1)C1(C(=O)Nc2cccc(-c3c[nH]c4ncnc(N5CCOCC5)c34)c2)CC1 [Compound 2]
[1]
  dTm: 0.36 K
[2]
  dTm: -0.33 K
[3]; [11]
  dTm: 9.50 K
[4]
  dTm: 2.82 K
[5]
  dTm: 0.23 K
[6]
  dTm: 2.13 K
[7]
  dTm: 2.59 K
[8]
  dTm: 2.20 K
[9]
  dTm: 0.69 K
[10]
  dTm: 4.37 K

## O=C(Nc1cccc(-c2c[nH]c3ncnc(N4CCOCC4)c23)c1)c1cccn(-c2ccc(F)cc2)c1=O [Compound 4]
[1]
  dTm: -0.07 K
[2]
  dTm: -0.50 K
[3]; [11]
  dTm: 8.03 K
[4]
  dTm: 3.66 K
[5]
  dTm: -0.19 K
[6]
  dTm: 0.92 K
[7]
  dTm: 5.10 K
[8]
  dTm: 2.38 K
[9]
  dTm: 0.73 K
[10]
  dTm: 7.33 K

## Cc1cc(NC(=O)C2(C(=O)Nc3ccc(F)cc3)CC2)cc(-c2c[nH]c3ncnc(N4CCOCC4)c23)c1 [Compound 6]
[1]
  dTm: 0.40 K
[2]
  dTm: -0.31 K
[3]; [11]
  dTm: 12.36 K
[4]
  dTm: 0.34 K
[5]
  dTm: 0.88 K
[6]
  dTm: 1.27 K
[7]
  dTm: 0.62 K
[8]
  dTm: 1.56 K
[9]
  dTm: 1.87 K
[10]
  dTm: 4.54 K

## O=C(Nc1cccc(-c2c[nH]c3ncnc(N4CCOCC4)c23)c1)C1(C(=O)Nc2cccc3c2CCC3)CC1 [Compound 11]
[1]
  dTm: 1.27 K
[2]
  dTm: -0.99 K
[3]; [11]
  dTm: 10.02 K
[4]
  dTm: 0.28 K
[5]
  dTm: 0.47 K
[6]
  dTm: 1.06 K
[7]
  dTm: 3.41 K
[8]
  dTm: 2.82 K
[9]
  dTm: 1.38 K
[10]
  dTm: 4.91 K

## O=C(Nc1ccccc1)C1(C(=O)Nc2cccc(-c3c[nH]c4ncnc(N5CCOCC5)c34)c2)CC1 [Compound 12]
[1]
  dTm: 0.26 K
[2]
  dTm: 0.18 K
[3]; [11]
  dTm: 6.85 K
[4]
  dTm: 3.99 K
[5]
  dTm: 0.56 K
[6]
  dTm: 3.25 K
[7]
  dTm: 3.09 K
[8]
  dTm: 2.08 K
[9]
  dTm: 0.82 K
[10]
  dTm: 3.99 K

## O=C(Nc1ccc(Cl)cc1)C1(C(=O)Nc2cccc(-c3c[nH]c4ncnc(N5CCOCC5)c34)c2)CC1 [Compound 13]
[1]
  dTm: 1.64 K
[2]
  dTm: 0.12 K
[3]; [11]
  dTm: 10.34 K
[4]
  dTm: 5.32 K
[5]
  dTm: -0.42 K
[6]
  dTm: 4.69 K
[7]
  dTm: 3.38 K
[8]
  dTm: 2.65 K
[9]
  dTm: 1.60 K
[10]
  dTm: 5.46 K

## Cc1ccc(NC(=O)C2(C(=O)Nc3cccc(-c4c[nH]c5ncnc(N6CCOCC6)c45)c3)CC2)cc1 [Compound 14]
[1]
  dTm: -0.61 K
[2]
  dTm: -0.92 K
[3]; [11]
  dTm: 8.39 K
[4]
  dTm: 3.71 K
[5]
  dTm: 0.14 K
[6]
  dTm: 1.13 K
[7]
  dTm: 1.85 K
[8]
  dTm: 1.56 K
[9]
  dTm: 0.96 K
[10]
  dTm: 3.41 K

## CCc1ccc(NC(=O)C2(C(=O)Nc3cccc(-c4c[nH]c5ncnc(N6CCOCC6)c45)c3)CC2)cc1 [Compound 15]
[1]
  dTm: -0.28 K
[2]
  dTm: -0.75 K
[3]; [11]
  dTm: 9.26 K
[4]
  dTm: 4.01 K
[5]
  dTm: 0.29 K
[6]
  dTm: 1.02 K
[7]
  dTm: 2.19 K
[8]
  dTm: 2.06 K
[9]
  dTm: 1.13 K
[10]
  dTm: 2.91 K

## CCNc1nc(Nc2cc(F)c(C(=O)N3CCOCC3)cc2OC)ncc1C(F)(F)F [GNE-7915]
[1]
  dTm: 0.32 K
[2]
  dTm: 1.29 K
[3]; [11]
  dTm: 1.48 K
[4]
  dTm: 0.08 K
[5]
  dTm: 0.64 K
[6]
  dTm: 0.44 K
[7]
  dTm: 0.08 K
[8]
  dTm: 0.65 K
[9]
  dTm: 0.10 K

## Cc1ccc(C(=O)Nc2ccc(CN3CCN(C)CC3)c(C(F)(F)F)c2)cc1C#Cc1cnc2[nH]ncc2c1 [GZD-824, reference compound]
[1]
  dTm: 0.16 K
[2]
  dTm: 0.59 K
[3]
  dTm: 38.00 K
[4]
  dTm: 15.76 K
[5]
  dTm: 9.39 K
[6]
  dTm: -0.44 K
[7]
  dTm: 4.34 K
[8]
  dTm: 0.96 K
[9]
  dTm: 0.11 K

## C[C@@H]1CN(c2cc(-c3n[nH]c4ccc(OC5(C)CC5)cc34)ncn2)C[C@H](C)O1 [MLi2]
[1]
  dTm: -0.26 K
[2]
  dTm: 0.22 K
[3]; [11]
  dTm: 0.50 K
[4]
  dTm: 0.06 K
[5]
  dTm: 2.98 K
[6]
  dTm: 0.81 K
[7]
  dTm: -0.11 K
[8]
  dTm: 0.18 K
[9]
  dTm: 1.04 K

## Cn1cc(-c2c[nH]c3ncnc(N4CCOCC4)c23)cc1C#N [PFE-360]
[1]
  dTm: 0.43 K
[2]
  dTm: 0.54 K
[3]; [11]
  dTm: 2.10 K
[4]
  dTm: 0.07 K
[5]
  dTm: 1.09 K
[6]
  dTm: 1.04 K
[7]
  dTm: -0.24 K
[8]
  dTm: 1.09 K
[9]
  dTm: 0.00751 K

## Cc1ccc(C(=O)Nc2ccc(CN3CCN(C)CC3)c(C(F)(F)F)c2)cc1C#Cc1cnc2cccnn12 [Ponatinib, reference compound]
[3]; [11]
  dTm: 36.88 K
[4]
  dTm: 13.49 K
[5]
  dTm: 9.86 K

## CNC(=O)c1cc(Oc2ccc(NC(=O)Nc3cc(C(C)(C)C)nn3-c3ccc4ncccc4c3)c(F)c2)ccn1 [Rebastinib, reference compound]
[1]
  dTm: 3.53 K
[2]
  dTm: -1.01 K
[4]
  dTm: -2.84 K
[5]
  dTm: 1.31 K
[6]
  dTm: 0.65 K
[7]
  dTm: 5.33 K
[8]
  dTm: 0.26 K
[9]
  dTm: 0.87 K
[10]
  dTm: 0.33 K

## CN[C@@H]1C[C@H]2O[C@@](C)([C@@H]1OC)n1c3ccccc3c3c4c(c5c6ccccc6n2c5c31)C(=O)NC4 [Staurosporine]
[2]
  dTm: 9.84 K
[4]
  dTm: 7.02 K
[8]
  dTm: 12.80 K
